In the RepoRT retention time repository one finds LC retention time data, which are given here for 77 compounds.

This series can be described thus: Waters ACQUITY UPLC BEH C18, 100 × 2.1 mm, 1.7 µm, 40 °C, 0.3 to 0.4 mL/min, estimated dead time 0.63 min; A: water + 0.1% formic acid; B: methanol + 0.1% formic acid; gradient (min/%B) 0/0.5 0.1/0.5 10/80 10.1/99.5 12/99.5. The settings on record: stereoisomer not certain.
As for `CCC1(O)C(=O)OCc2c1cc1n(c2=O)Cc2cc3ccccc3nc2-1` (configuration not stated), the LC retention time is 5.4 min. The figure for `COc1ccc(-c2coc3cc(O)cc(O)c3c2=O)cc1` is 7.63 min; for `CN1CCC23c4ccccc4NC1C21CCN(C)C3Nc2ccccc21` it is 2.57 min; for `CC(O)(CC(=O)O)CC(=O)O` it is 1.98 min. `CCCCCCCCCCCCCCCC(=O)OCC(O)COP(=O)(O)OCCN` (configuration not stated): the LC retention time is 10 min.

As to `O=c1cc2oc(-c3ccc([O-])c(O)c3)c(OC3OC(CO)C(O)C(O)C3OC3OCC(O)C(O)C3O)cc-2c(O)c1` (configuration not stated), the LC retention time is 2.88 min.

Take `COc1cc2c3c(c1OC)-c1cc4c(cc1CC3N(C)CC2)OCO4` (configuration not stated): the LC retention time was 4.89 min. Under `COc1cc(-c2cc(=O)c3c(O)c(C4OC(CO)C(O)C(O)C4OC4OC(CO)C(O)C(O)C4O)c(O)cc3o2)ccc1O` (configuration not stated) stands 3.87 min; under `O=C1CCCC2C3CCCN4CCCC(CN12)C34` (configuration not stated), 2.26 min; under `OCC1OC(OCC2OC(OCC3OC(OC4(CO)OC(CO)C(O)C4O)C(O)C(O)C3O)C(O)C(O)C2O)C(O)C(O)C1O` (configuration not stated), 1.69 min.

For the compound `COc1cc2oc(-c3ccc(O)cc3)cc(=O)c2c(O)c1C1OC(CO)C(O)C(O)C1O` (configuration not stated), the LC retention time was 4.08 min. The figure for `COc1ccc2c3c([nH]c2c1)C1CC2C(=CCO)CN1C1C3OCC21` (configuration not stated) is 3.6 min; for `CC1(C)CCC2(C(=O)O)CCC3(C)C(=CCC4C5(C)CCC(OC6OC(C(=O)O)C(O)C(OC7OC(CO)C(O)C(O)C7O)C6O)C(C)(CO)C5CCC43C)C2C1` (configuration not stated) it is 7.55 min; for `COc1ccc(-c2cc(=O)c3c(O)cc(O)cc3o2)cc1O` it is 6.78 min. For `COc1cc(C=CC(=O)NCCCCNC(=O)C=Cc2ccc(O)c(OC)c2)ccc1O`, the LC retention time is 5.19 min. As for `CC1OC(OCC2OC(Oc3c(-c4ccc(O)cc4)oc4cc(OC5OC(C)C(O)C(O)C5O)cc(O)c4c3=O)C(O)C(O)C2O)C(O)C(O)C1O` (configuration not stated), the LC retention time was 3.4 min. Under `CC(C)CC(N)C(=O)NC(C)C(=O)O` (configuration not stated) stands 2.02 min; under `O=S(=O)(O)ON=C(CC(O)c1ccccc1)SC1OC(CO)C(O)C(O)C1O` (configuration not stated), 2.71 min; under `CC1OC(OC2C(CO)OC(OCC3OC(OC(=O)C45CCC(C)(C)CC4C4=CCC6C7(C)CCC(OC8OCC(O)C(O)C8OC8OC(C)C(O)C(O)C8O)C(C)(CO)C7CCC6(C)C4(C)CC5)C(O)C(O)C3O)C(O)C2O)C(O)C(O)C1O` (configuration not stated), 5.38 min. Consider `NC(=O)CN1CC2CC(C1)c1cccc(=O)n1C2` (configuration not stated), for which the LC retention time was 2.18 min. The figure for `O=C1NCC(=O)N2CCCC12` (configuration not stated) is 2.06 min; for `OCC1OC(Oc2cc3c(O)cc(O)cc3[o+]c2-c2ccc(O)cc2)C(O)C(O)C1O` (configuration not stated) it is 3.12 min. Under `CCC(C)C(=O)OC1C(O)C2C(CN3CC(C)CCC3C2(C)O)C2CC34OC5(O)C(OC(=O)C(C)(O)C(C)O)CCC3(C)C5CC(O)C4C21O` (configuration not stated) stands 4.65 min.

For the compound `CCCCCCCCNC(O)CCc1ccc(O)c(OC)c1` (configuration not stated), the LC retention time is 5.25 min. The figure for `COc1c(O)cc2c(c1O)C1OC(CO)C(O)C(O)C1OC2=O` (configuration not stated) is 2.86 min; for `COc1cc(O)c2c(c1)OC(c1ccc(O)cc1)CC2=O` (configuration not stated) it is 7.42 min. Consider `O=c1cc(-c2ccc(O)c(O)c2)oc2cc(O)c(C3OC(CO)C(O)C(O)C3OC3OC(CO)C(O)C(O)C3O)c(O)c12` (configuration not stated), for which the LC retention time was 3.44 min. The figure for `COc1cc(C=CC(=O)OC2C(OC3C(Oc4cc(O)c5c(=O)cc(-c6ccc(O)c(OC)c6)oc5c4)OC(C(=O)O)C(O)C3O)OC(C(=O)O)C(O)C2O)ccc1O` (configuration not stated) is 4.68 min; for `COC(=O)C1C2CC3c4[nH]c5cc(OC)ccc5c4CCN3CC2CC(OC(=O)c2cc(OC)c(OC)c(OC)c2)C1OC` (configuration not stated) it is 6.12 min; for `COc1c(O)cc(O)c2c(=O)cc(-c3ccccc3)oc12` it is 7.27 min. The figure for `COc1cc(C=CC(=O)O)ccc1O` is 4.24 min; for `Nc1ncnc2c1ncn2C1CC(O)C(CO)O1` (configuration not stated) it is 1.93 min.

Regarding `CCCCCCCCC=CCCCCCCCC(=O)OCC(O)COP(=O)([O-])OCC[N+](C)(C)C` (configuration not stated), the LC retention time was 10.1 min. The figure for `COC(=O)C1CC23CCCN4CCC5(c6ccccc6NC15CC2)C43` (configuration not stated) is 3.92 min; for `CS(=O)CCCCCCCCC(=O)O` (configuration not stated) it is 4.43 min. Under `NCCCCNC(=O)C=Cc1ccc(O)cc1` stands 2.67 min. The figure for `O=C(O)C1CCC(=O)N1CC1(O)OC(CO)C(O)C1O` (configuration not stated) is 1.77 min. Consider `C=CC1C(OC2OC(CO)C(O)C(O)C2O)OC=C(C(=O)OC)C1CC1NCCc2c1[nH]c1ccccc21` (configuration not stated), for which the LC retention time is 4.36 min.

As for `CCCCCC=CCC=CCCCCCCCC(=O)OCC(O)COP(=O)([O-])OCC[N+](C)(C)C` (configuration not stated), the LC retention time was 9.31 min. As for `COc1c(-c2ccccc2)oc2c(OC)c(O)cc(O)c2c1=O`, the LC retention time was 5.71 min.

For `COc1cc(C(=O)OC2CC3CCC(C2)N3)ccc1O` (configuration not stated), the LC retention time was 3.27 min. Take `CCC1=CC2CN3CCc4c([nH]c5ccccc45)C(C(=O)OC)(C2)C13` (configuration not stated): the LC retention time is 5.04 min. For the compound `CCCSSCC(NC(=O)CCC(N)C(=O)O)C(=O)NCC(=O)O` (configuration not stated), the LC retention time was 3.78 min.

As for `C=CCc1ccc(O)c(-c2cc(CC=C)ccc2O)c1`, the LC retention time is 9.21 min. Under `O=c1c(-c2ccc(O)cc2)coc2cc(OC3OC(CO)C(O)C(O)C3O)ccc12` (configuration not stated) stands 3.65 min; under `COc1cc(-c2[o+]c3cc(O)cc(O)c3cc2OC2OC(CO)C(O)C(O)C2O)cc(OC)c1O` (configuration not stated), 3.19 min. The figure for `CC(CCC1C(CO)=CC(=O)CC1(C)C)OC1OC(CO)C(O)C(O)C1O` (configuration not stated) is 3.81 min. Consider `OCC1OC(Oc2cc(O)cc(C=Cc3ccc(O)cc3)c2)C(O)C(O)C1O` (configuration not stated), for which the LC retention time is 4.05 min.

For the compound `NC(Cc1ccccc1)C(=O)O` (configuration not stated), the LC retention time was 2.3 min.

For `CN1C2CCC1CC(OC(=O)C(O)c1ccccc1)C2` (configuration not stated), the LC retention time was 3.15 min. Under `O=C(O)CCCC(=O)O` stands 2.53 min. The figure for `CCCCCC(=O)OC1C(OC2(CO)OC(CO)C(OC(C)=O)C2O)OC(CO)C(OC(=O)CCCC)C1OC(=O)CCCC` (configuration not stated) is 9.02 min; for `COc1cc(-c2oc3cc(O)cc(O)c3c(=O)c2O)ccc1O` it is 6.14 min; for `O=C1CC(c2ccccc2)Oc2cc(O)cc(O)c21` (configuration not stated) it is 7.47 min.

`COc1ccc(C(C)=O)c(O)c1`: the LC retention time is 6.57 min. The figure for `CC(C)C(NC(=O)C(N)Cc1ccccc1)C(=O)O` (configuration not stated) is 2.98 min; for `CC1OC(Oc2c(-c3ccc(O)c(O)c3)oc3cc(OC4OC(CO)C(O)C(O)C4O)cc(O)c3c2=O)C(OC2OC(COC(=O)C=Cc3ccc(O)cc3)C(O)C(O)C2O)C(O)C1O` (configuration not stated) it is 4.48 min.

In the case of `COc1ccc2c(c1O)-c1c(OC)c(OC)cc3c1C(C2)N(C)CC3` (configuration not stated), the LC retention time is 3.92 min. Under `CC1(C)CC(O)C2(C)CCC3(C)C(=CCC4C5(C)CCC(OC6OC(C(=O)O)C(O)C(O)C6OC6OC(CO)C(O)C(O)C6OC6OCC(O)C(O)C6O)C(C)(CO)C5CCC43C)C2C1` (configuration not stated) stands 5.73 min; under `COC(=O)C1=C2Nc3ccccc3C23CCN2C4OC56C7CC4(CN5c4c(OC)cccc4C64CCN5CCC6OCCC6(C7)C54)C4OCCC4(C1)C23` (configuration not stated), 5.79 min; under `CCC1C(=O)OCC1Cc1cncn1C` (configuration not stated), 2.4 min.

Take `COc1ccc(-c2coc3cc(OC4OC(CO)C(O)C(O)C4O)c(OC)cc3c2=O)cc1` (configuration not stated): the LC retention time is 5.05 min.

Take `CC(=O)N1CC(C)CCC12OC1CC3C4CC=C5CC(O)CCC5(C)C4CCC3(C)C1C2C` (configuration not stated): the LC retention time is 7.36 min. Under `CCCCCCCCCCCCCCCC(=O)OCC(O)COP(=O)(O)OCCNC1OC(CO)C(O)C(O)C1O` (configuration not stated) stands 9.72 min; under `CC(CCC1(O)OC2CC3C4CC=C5CC(OC6OC(COC7OC(C)C(O)C(O)C7OC7OC(C)C(O)C(O)C7OC7OC(C)C(O)C(O)C7O)C(O)C(O)C6O)CCC5(C)C4CCC3(C)C2C1C)COC1OC(CO)C(O)C(O)C1O` (configuration not stated), 5.1 min. The figure for `CCC1C(=O)OCc2c1cc1n(c2=O)Cc2cc3ccccc3nc2-1` (configuration not stated) is 5.77 min; for `O=C(C=Cc1ccc(O)cc1)NCCc1ccc(O)cc1` it is 5.06 min; for `CS(=O)CCCCN=C=S` (configuration not stated) it is 3.69 min.

For `Oc1ccc(CCc2cc(O)cc(O)c2)cc1`, the LC retention time was 5.15 min. Under `CCC1CN2CCc3cc(OC)c(OC)cc3C2CC1CC1NCCc2cc(OC)c(OC)cc21` (configuration not stated) stands 3.41 min; under `COc1cc(-c2[o+]c3cc(O)cc(O)c3cc2OC2OC(CO)C(O)C(O)C2O)cc(O)c1O` (configuration not stated), 3.21 min; under `CC(C)=CCCC(C)(OC1OC(COC2OC(CO)C(O)C(O)C2O)C(O)C(O)C1O)C1CCC2(C)C1C(O)CC1C3(C)CCC(OC4OC(CO)C(O)C(O)C4OC4OC(CO)C(O)C(O)C4O)C(C)(C)C3CCC12C` (configuration not stated), 5.88 min. The figure for `O=c1c(O)c(-c2ccc(O)c(O)c2)oc2cc(O)cc(O)c12` is 5.37 min; for `O=C(C=Cc1ccc(O)cc1)OCC1OC(Oc2c(-c3ccc(O)cc3)oc3cc(O)cc(O)c3c2=O)C(O)C(O)C1O` (configuration not stated) it is 5.21 min; for `CN1c2cc(O)c(N=NC(N)=O)cc2CC1S(=O)(=O)O` (configuration not stated) it is 2.69 min. The figure for `COc1ccc(-c2cc(=O)c3c(O)cc(OC4OC(C(=O)O)C(O)C(O)C4O)cc3o2)cc1O` (configuration not stated) is 4.6 min; for `COc1ccc2c3c([nH]c2c1)C1CC2C(CC(O)C(OC)C2C(=O)O)CN1CC3` (configuration not stated) it is 3.89 min.
